# Experimental data from patent publication US11951087B2, “Eye wash compositions and methods” (priority 2021, dated 2024).
# Where “and” joins values, the source holds several entries; their conditions need not be identical. Identical values can stand only once. Entries after “also recorded” stand apart in the source; their conditions may differ. Like-named read-outs stand apart in the source and are kept apart here.
# Legend:
# Pseudomonas aeruginosa = assay type: cell-based; conditions: disc diffusion
# P. acnes = assay type: cell-based; conditions: disc diffusion
# [1] = system: P. aeruginosa (ACTA 9027); assay type: in vivo; conditions: day five; for bacterial burden: topical 50, 100, 200 mM in water, none statistically significant; for most effective dose: topical, aqueous
# Candida albicans = assay type: cell-based; conditions: disc diffusion
# Source text: This example describes the method for testing the antimicrobial susceptibility of anthocyanins, anthocyanidins, or metabolites and compounds thereof. The Kirby-Bauer method of disc diffusion was used for testing, following a standard set of procedures recommended by the NCCLS. In this methodology, a set of discs saturated with either testing compounds or a control was placed on inoculated agar plates. The plates were inoculated with organisms including C. difficile, P. acnes, C. prefringens, L. casei, C. albicans, E. coli, ATTC 8739 and ATCC 43895, S. aureus, S. mutans, S. pyogenes, P. aeruginosa and K. pneumonia. The control sample was amoxicillin, an antimicrobial with very effective broad-spectrum antibiotic properties. Samples included delphinidin, pelargonidin, cyanidin CI, 28% cyanindin-3-glucoside (C3G), protocatechuic acid (PCA) and 2,4,6 Trihydroxybenzaldehyde (2,4,6 THBA).
# After 18, 24, or 48 hours of incubation, depending upon the microorganism, each plate was examined. The diameters of the zones of complete inhibition were measured, including the diameter of the disc. Zones were measured to the nearest millimeter, using sliding calipers. The size of the zones of inhibition was interpreted by referring to NCCLS standard. […]
# [2] = Solubility and hydrophilic-lipophile balance; assay type: physicochemical
# IGF-1 [3] = experiment: Growth hormone levels in stripped mouse skin by ELISA (Example 5); assay type: in vivo; conditions: 25 mM; stripped and infected mice skin; 48 hours
# Protocol: (§1) Four different conditions were used: mice had back skin tape stripped and the stripped site (wound) was infected with P. aeruginosa; mice had back skin stripped and were not infected, mice had taped stripped, infected and treated with PCA, mice were tape stripped, uninfected, and treated with PCA. When used, the PCA test reagent was applied topically in an aqueous solution on the stripped site at two hours and 24 hours.
# (§2) The testing reagents consisted of and PCA formulated at one dose, 25 mM, in an aqueous solution. Levels of IGF-1, TGF-β, and EGF levels in the skin tissue at 48 hours were measured by ELISA. There were two control groups: the stripped skin and the stripped skin and infected.
# EGF [4] = experiment: as above; assay type: in vivo, mice; conditions: 25 mM, infected and treated wound, 48 hours
# Protocol: as §1, §2
# [5] = system: skin stripped wounds infected with Pseudomonas aeruginosa (ATCC 27853); experiment: Histological assessment of tape-stripped, infected mouse skin wound (Example 6); conditions: for tissue repair as evidenced by histology: two different doses
# eye tissues = experiment: Irritation of eye tissues
# [6] = system: P. aeruginosa (ACTA 27853); assay type: in vivo; conditions: for kill of Pseudomonas aeruginosa: both reagents and dose; for dose with most significant decrease of bacteria: day two and four; for bactericidal on stripped skin wound: 48 to 96 hours
# [7] = upon ingestion; cited from earlier work
# IGF-1 [8] = experiment: Local growth hormone levels in normal mouse skin (Example 4); assay type: in vivo, mice; conditions: 100 μM topical, normal rodent skin
# Protocol: (§3) Mice were shaved but unstrapped and uninfected (normal rodent skin). The test reagents were applied topically in an aqueous solution on the unstripped site at two hours and daily on day 1, 2 and 3. Testing reagents consisted of […] and PCA formulated at one dose, 100 μM in an aqueous solution.
# EGF [9] = experiment: as above; assay type: in vivo, mice; conditions: 100 μM topical, normal rodent skin
# Protocol: as §3
# TGF-β = experiment: as above; assay type: in vivo, mice; conditions: 100 μM topical, normal rodent skin
# Protocol: as §3
# [10] = 48 and 96 hours, topical, aqueous
smiles,measurement,setting,value
"CC1(C)S[C@@H]2[C@H](NC(=O)[C@H](N)c3ccc(O)cc3)C(=O)N2[C@H]1C(=O)O [Amoxicillin, amoxicillin, reference compound]",effect on Pseudomonas aeruginosa,Pseudomonas aeruginosa,no effect
"O=C(O)c1ccc(O)c(O)c1 [PCA, protocatechuic acid]",bactericidal against P. acnes,P. acnes,bactericidal
same,susceptibility of P. acnes,P. acnes,susceptible
same,bacterial burden,[1],decreased the bacterial burden
same,most effective dose,[1],50 mM
same,susceptibility of Candida albicans,Candida albicans,susceptible
same,solubility in a lens care solution,[2],soluble
same,IGF-1 production,IGF-1 [3],optimizes the IGF-1 production
same,EGF response level,EGF [4],lowest
same,collagen between epidermis and dermis,"[5]; 25 mM, 48 hours",collagen proliferation; also recorded: collagen layer formation
same,dermal layer thickness,"[5]; 25 mM, 48 hours",thickened
same,hair follicles,"[5]; 25 mM, 48 hours",prominent with multiple cellular lining
same,inflammation,"[5]; 25 mM, 48 hours",abundant inflammation
same,surface cellularity,"[5]; 25 mM, 48 hours",abundant and multiple cell layers
same,vascularity,"[5]; 25 mM, 48 hours",moderate vascularity
same,dermal layer thickness,"[5]; 50 mM, 48 hours",thicker
same,hair follicles,"[5]; 50 mM, 48 hours",double layer of cells
same,inflammation,"[5]; 50 mM, 48 hours",increased in the dermis and below the muscle layer
same,surface cellularity,"[5]; 50 mM, 48 hours",covered with multiple layers of cells
same,vascularity,"[5]; 50 mM, 48 hours",increased vascularity
same,tissue repair as evidenced by histology,[5],stimulated tissue repair
same,irritation of eye tissues,eye tissues,non-irritating
same,statistical significance of bacterial burden reduction,"[6]; 25 mM, 48 hours",statistically significant
same,bacterial burden,"[6]; 25 mM, both time periods (48 and 96 hours)",reduced the bacterial burden
same,bacterial burden,[6]; [10],decreased the bacterial burden
same,kill of Pseudomonas aeruginosa,[6]; 48 hours,"10,000 fold"
same,dose with most significant decrease of bacteria,[6],25 mM
same,bactericidal on stripped skin wound,[6]; topical,bactericidal
same,duration in the body,[7],8 h
same,route of elimination,[7],via the urine and feces
same,time of peak amount,[7],2 h
same,effect on Pseudomonas aeruginosa,Pseudomonas aeruginosa,some effectiveness
"OC[C@H]1O[C@@H](Oc2cc3c(O)cc(O)cc3[o+]c2-c2ccc(O)c(O)c2)[C@H](O)[C@@H](O)[C@@H]1O [C3G, Cyanidin 3-glucoside]",bactericidal against P. acnes,P. acnes,bactericidal
same,susceptibility of P. acnes,P. acnes,susceptible
same,bacterial burden,[1],decreased the bacterial burden
same,most effective dose,[1],100 mM
same,local level of IGF-1,IGF-1 [8],decrease
same,local level of EGF,EGF [9],decrease
same,local level of TGF-β,TGF-β,decrease
same,dermal layer thickness,"[5]; 100 mM, 48 hours",thicker
same,hair follicles,"[5]; 100 mM, 48 hours",single and double cellular lining
same,inflammation,"[5]; 100 mM, 48 hours",inflammation in the dermis and muscular layer and below
same,surface cellularity,"[5]; 100 mM, 48 hours",multiple cellular covering
same,vascularity,"[5]; 100 mM, 48 hours",prominent
same,dermal layer thickness,"[5]; 200 mM, 48 hours",thickened
same,hair follicles,"[5]; 200 mM, 48 hours",single and double cellular lining
same,inflammation,"[5]; 200 mM, 48 hours",inflammation in the dermis and muscular layer
same,surface cellularity,"[5]; 200 mM, 48 hours",multiple cells thick
same,vascularity,"[5]; 200 mM, 48 hours",increased
same,tissue repair as evidenced by histology,[5],stimulated tissue repair
same,bacterial burden,"[6]; 100 mM, 48 and 96 hours",significantly reduced
same,bacterial burden,"[6]; 200 mM, 48 and 96 hours",significantly reduced
same,bacterial burden,[6]; [10],decreased the bacterial burden
same,kill of Pseudomonas aeruginosa,[6]; 48 hours,"10,000 fold"
same,dose with most significant decrease of bacteria,[6],100 mM and 200 mM
same,bactericidal on stripped skin wound,[6]; topical,bactericidal
